Calls of active or inactive are those of the source.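 How the source made its calls: active means caspase luminescence falls with dose and the half-maximal concentration AC50 from the fitted curve is at or below a set limit; inconclusive means flat fit at 30 to 70% signal loss, or invalid fit; inactive means AC50 above the limit, or signal rises instead.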
system: INS-1E cytokine-induced caspase-3/7, Caspase-Glo luminescence, 48 h; test: suppression of cytokine-driven beta-cell apoptosis – INS-1E rat cells, luminescence, orthogonal assay for beta-cell apoptosis protection project, dose response (AID 463206)

| Compound | AC50 |
| --- | --- |
| CC(=O)c1sc(NC(=O)C2(F)C(F)(F)C(F)(F)C(F)(F)C(F)(F)C2(F)F)nc1C | > 26 µM (inactive) |
| COc1ccc(Nc2nc(N3CCCC3)c3ccccc3n2)cc1 | 17.1 µM |
| CC(=O)OC1COC(OC2C(O)C(C)OC(OC3C(OC4CCC5(C)C(CCC6(C)C5CC=C5C7CC(C)(C)CCC7(C(=O)O)CCC56C)C4(C)CO)OCC(O)C3O)C2O)C(O)C1OC(C)=O (centres undefined) | > 26 µM (inactive) |
| O=C(Nc1cccc(C(F)(F)F)c1)Oc1ccc(Cl)c2cccnc12 | > 26 µM (inactive) |
| COc1ccc(-c2sc3ccccc3c2-c2ccc(OCCN(C)C)cc2)cc1 | > 12 µM (inactive) |
| COc1cnc(-c2ccccn2)nc1N(C)c1ccccc1 | > 26 µM (inactive) |
| Cc1ccc(-c2nn(-c3ccccc3)cc2/C=C/C(=O)Nc2cccc(S(N)(=O)=O)c2)cc1 | > 26 µM (inactive) |
| CCn1c(Cl)c(C=O)s/c1=N\S(=O)(=O)c1ccccc1 | > 26 µM (inactive) |
| C=C1C(O)[C@@H]2O[C@]3(CC[C@H](/C=C/C(C)[C@@H]4CC(C)=CC5(O[C@H](C[C@@](C)(O)CO)CCC5O)O4)O3)CC[C@H]2O[C@@H]1C(O)CC(C)[C@H]1OC2(CCCCO2)CCC1C (some centres undefined) | 3.84 µM |
| Cc1ccc(C(=O)O/N=C/c2c(N3CCOCC3)n(C)c3ccccc23)cc1 | > 26 µM (inactive) |
| CCCNC(=O)c1c(N)n(-c2cccc(OC)c2)c2nc3ccccc3nc12 | > 26 µM (inactive) |
| C/C(=N\N1C(=O)c2ccccc2NC1c1ccco1)c1ccccc1O (centres undefined) | > 26 µM (inactive) |
| Cc1cccnc1CN1CCN(C(=O)c2cc(COc3ccc4ncccc4c3)on2)CC1 | > 26 µM (inactive) |
| CCn1c(C)c(C)c2cc(C(=O)N3CCc4ccccc4C3)ccc21 | > 26 µM (inactive) |
| O=C(C(Sc1ccccc1)c1ccccc1)N1CCN(c2ccccc2F)CC1 (centres undefined) | > 26 µM (inactive) |
| Cc1sc2ncnc(NCC(O)c3ccccc3)c2c1C (centres undefined) | 23.5 µM |
| COc1cc(N/N=C/c2ccccc2O)ncn1 | > 26 µM (inactive) |
| CC(C)(C)c1ccc(OCc2ccc(C(=O)N/N=C/c3ccc(O)c(O)c3)cc2)cc1 | > 26 µM (inactive) |
| COc1ccc([C@H]2CC(=O)C=C(c3ccnc4ccc(Cl)cc34)C2)cc1 | > 26 µM (inactive) |
| c1ccc2c(c1)ncn2CCCCOc1ccc2c(c1)CCC2 | > 26 µM (inactive) |
| O=C(Nc1ccc(Cl)c(Cl)c1)N1CCSC1c1ccco1 (centres undefined) | > 26 µM (inactive) |
| CC(NC(=S)NC1CCCCC1)c1ccc(C(C)(C)C)cc1 (centres undefined) | > 26 µM (inactive) |
| Cc1nc(Nc2cnc(/C=C/c3cc(C(=O)Nc4cccc(C(F)(F)F)c4)ccc3C)cn2)cc(N2CCNCC2)n1 | > 26 µM (inactive) |
| CCN(CC)c1ccc(/C=N/NC(=O)c2cccc(S(=O)(=O)N3CCOCC3)c2)c(O)c1 | > 26 µM (inactive) |

| Compound | AC50 |
| --- | --- |
| COc1cc(Cl)c(NC2=CC(=O)C(=O)c3ccccc32)c(OC)c1 | > 26 µM (inactive) |
| COc1ccc(Cn2c(-c3ccc(C)cc3)c[n+]3ccccc23)cc1 | > 26 µM (inactive) |
| O=C(OCn1ncc(Cl)c(Cl)c1=O)c1ccccc1Cl | > 26 µM (inactive) |
| COc1ccc(CN(C)C(=O)c2ccc(NS(=O)(=O)c3ccc(F)cc3)cc2)c(OC)c1OC | > 26 µM (inactive) |
| Oc1cccc(/C=N/Nc2ccc(Cl)nn2)c1O | > 26 µM (inactive) |
| CCCC(=O)NC(c1ccc(N(C)C)cc1)c1ccc2cccnc2c1O (centres undefined) | > 26 µM (inactive) |
| O=C(N/N=C/c1cccc(F)c1)c1c(O)c2ccccc2[nH]c1=O | > 26 µM (inactive) |
| CC1CCN(Cc2c(C(=O)N/N=C/c3cc(Cl)ccc3O)nnn2-c2nonc2N)CC1 | > 26 µM (inactive) |
| COC(=O)c1cccc(NC(=O)Nc2ccc(Cl)c(Cl)c2)c1 | > 26 µM (inactive) |
| COc1ccc(C2=Nn3c(nnc3-c3ccccc3Cl)SC2)cc1OC1CCCC1 | > 26 µM (inactive) |
| O=C(C1CCC1)N1CCc2cc(S(=O)(=O)Nc3ccc4c(c3)OCCO4)ccc21 | > 26 µM (inactive) |
| CN(C)CCOc1ccc(-c2c(-c3ccccc3)sc3ccccc23)cc1 | > 26 µM (inactive) |
| Cc1ccc(-c2cn(-c3ccc(OC(F)F)cc3)c3[n+]2CCCCC3)cc1 | > 26 µM (inactive) |
| O=C(N/N=C/c1ccc(O)cc1O)c1ccc(NC(=O)C2CCCCC2)cc1 | > 26 µM (inactive) |
| C/C(=N\NC(=O)c1ccc(NS(=O)(=O)c2cccs2)cc1)c1ccccn1 | > 12 µM (inactive) |
| COc1ccc2c(c1)N(C)/C(=C/c1cccc[n+]1C)S2 | > 26 µM (inactive) |
| CCCCC(=O)NC(c1ccccc1)c1ccc2cccnc2c1O (centres undefined) | > 26 µM (inactive) |
| CCOC(=O)C(C)/C(C)=N/NC(=O)c1cc2ccccc2cc1O (centres undefined) | > 26 µM (inactive) |
| O=C(Cn1c(-c2ccccc2)c[n+]2ccsc12)c1ccc([N+](=O)[O-])cc1 | > 26 µM (inactive) |
| O=S(=O)(Nc1nc2ccccc2s1)c1ccc(Cl)s1 | > 26 µM (inactive) |
| O=C(c1cnc(N2CCN(c3ccccn3)CC2)c2ccccc12)N1CCN(c2cccc(Cl)c2)CC1 | > 26 µM (inactive) |
| COCCN(C(=O)COC(=O)C1CCC(C(C)(C)C)CC1)c1c(N)n(Cc2ccccc2)c(=O)[nH]c1=O (centres undefined) | > 26 µM (inactive) |
| Cc1[nH]c(N=Nc2ccccc2)nc1N=Nc1ccccc1 | > 26 µM (inactive) |
| CCN1CCN(Cc2ccc(NC(=O)c3ccc(C)c(NC(=O)c4c[nH]c5cc(C(F)(F)F)ccc5c4=O)c3)cc2C(F)(F)F)CC1 | > 26 µM (inactive) |

| Compound | AC50 |
| --- | --- |
| CN(C)c1ccc(NC(=S)NC23CC4CC(CC(C4)C2)C3)cc1 | > 26 µM (inactive) |
| c1ccc2c(CN3CCCCCC3)c[nH]c2c1 | 4.24 µM |
| c1ccc2c3c([nH]c2c1)C1(CCNCC1)NCC3 | > 26 µM (inactive) |
| FC(F)(F)c1nnc2c(Sc3ccccc3)nc3ccc(Cl)cc3n12 | > 26 µM (inactive) |
| Cc1ccc(NC2=C(N3CCCCC3)C(=O)c3ccccc3C2=O)cc1 | > 26 µM (inactive) |
| CCCOc1ccc(CSc2nc3ccccc3[nH]2)cc1 | > 26 µM (inactive) |
| COC(=O)C1=C(C)N(Cc2ccccc2)C(=NCc2cccc(C(F)(F)F)c2)N[C@H]1c1cccc(C(F)(F)F)c1 | > 26 µM (inactive) |
| Nc1ccccc1N=Cc1c(O)n(CCC2=CCCCC2)c(=O)[nH]c1=O | > 26 µM (inactive) |
| COc1ccc(Cc2nnc(N/N=C/c3ccccc3O)[nH]c2=O)cc1OC | > 26 µM (inactive) |
| Cc1ccc(C(=O)Nc2nc(-c3ccccn3)cs2)s1 | > 26 µM (inactive) |
| OC(COC(c1ccc(F)cc1)c1ccc(F)cc1)CN1CCc2ccccc2C1 (centres undefined) | > 26 µM (inactive) |
| CCCCC(=O)NC(c1ccccc1OC)c1ccc2cccnc2c1O (centres undefined) | > 26 µM (inactive) |
| COc1ccc(C(CCN2CCCCC2)c2c(OC)cc(OC)c3c(-c4ccccc4)cc(=O)oc23)cc1 (centres undefined) | 16.6 µM |
| Brc1ccc(CN2CCN(Cc3c[nH]c4ccccc34)CC2)cc1 | > 26 µM (inactive) |
| O=C(Nc1cccc(NC(=O)c2ccccc2Cl)c1)c1ccc([N+](=O)[O-])o1 | > 26 µM (inactive) |
| COc1ccc(S(=O)(=O)N2CCNCC2)cc1OC | > 26 µM (inactive) |
| Clc1ccc(C[n+]2c(-c3ccccc3)cc(-c3ccccc3)cc2-c2ccccc2)cc1 | > 12 µM (inactive) |
| O=C(Nc1ccc(N2CCN(C(=O)c3ccc(Cl)cc3)CC2)cc1)c1cccnc1 | > 26 µM (inactive) |
| C=CCn1c(SCN2C(=O)c3ccccc3C2=O)nc2ccc(Cl)cc2c1=O | > 26 µM (inactive) |
| O=C(CNc1ccccc1)N/N=C/c1c(O)ccc2ccccc12 | > 26 µM (inactive) |
| COc1cccc(C(NC(C)=O)c2ccc3cccnc3c2O)c1 (centres undefined) | > 26 µM (inactive) |
| Cc1ccc2[nH]c3c(N4CCc5ccccc5C4)ncnc3c2c1 | > 26 µM (inactive) |
| CCOC(=O)c1sc(SC)c2c1CCC/C2=N/OC | > 26 µM (inactive) |
| COc1c(CC=C(C)C)cc(C2CC(=O)c3c(O)cc(O)cc3O2)cc1CC=C(C)C (centres undefined) | > 26 µM (inactive) |

| Compound | AC50 |
| --- | --- |
| Cc1cnc(NC(=O)CN2CCN(c3ccccn3)CC2)s1 | > 26 µM (inactive) |
| CCN(CC)c1ccc2nc3ccccc3[n+](CC)c2c1 | > 26 µM (inactive) |
| COc1ccc(C(C)NCCC(c2ccc(OC(C)C)cc2)c2ccccc2OC)cc1 (centres undefined) | > 26 µM (inactive) |
| Cc1ccccc1/C=N/Nc1ccnc2cc(Cl)ccc12 | > 26 µM (inactive) |
| CC(C)(C)CN1CCC(Oc2cccc(C(=O)NCCCOc3cccnc3)c2)CC1 | > 26 µM (inactive) |
| CCCCN(C)CCNC(=O)c1cc2c(-c3ccccc3F)nn(C)c2s1 | > 12 µM (inactive) |
| Cc1cccc(NC(=O)c2ccc([N+](=O)[O-])s2)c1C | > 26 µM (inactive) |
| CCCCCCc1cc2cc(C(=O)Nc3ccccc3)c(=O)oc2cc1O | > 26 µM (inactive) |
| c1ccc(-c2nc(N3CCCCCC3)c3ccccc3n2)nc1 | > 26 µM (inactive) |
| Cc1cc(/C=N/n2cnnc2)c(C)n1-c1ccc(OCc2ccc(Cl)cc2Cl)cc1 | > 26 µM (inactive) |
| Cc1ccc(C(=O)N/C(=C\c2ccc(-c3ccccc3[N+](=O)[O-])o2)C(=O)NCCCN2CCOCC2)cc1 | > 26 µM (inactive) |
| CN1/C(=C\C(=S)NC(=O)c2ccc([N+](=O)[O-])cc2)C(C)(C)c2ccccc21 | > 26 µM (inactive) |
| C/C(=N\NC(=O)COc1ccccc1-c1ccccc1)c1ccc(O)cc1O | > 26 µM (inactive) |
| COc1ccc(-n2cc(-c3ccc(OC(F)F)cc3)[n+]3c2CCCCC3)cc1 | > 26 µM (inactive) |
| O=C(OCn1ncc(Cl)c(Cl)c1=O)c1ccc(F)cc1 | > 26 µM (inactive) |
| O=C(NNC(=O)c1ccccc1OCc1ccccc1)c1ccccc1O | > 26 µM (inactive) |
| Cc1ccc2nc(-c3ccccn3)c(NC3CCCC3)n2c1 | > 12 µM (inactive) |
| C#Cc1ccc([C@@H]2C=C(C(=O)N3CCN(Cc4ccccc4)CC3)O[C@H](OCCCCO)C2)cc1 | > 26 µM (inactive) |
| Oc1ccc2ccccc2c1N=Nc1nccs1 | > 26 µM (inactive) |
| COc1ccc(-c2c[n+](CC(=O)OC3CC(C)CCC3C(C)C)c3n2CCC3)cc1 (centres undefined) | > 26 µM (inactive) |
| Cc1cccc(/C=N/NC(=O)c2c(-c3ccccc3)noc2C)c1O | > 26 µM (inactive) |
| CCCc1sc(N/N=C/c2ccccn2)nc1-c1ccc(Br)cc1 | > 26 µM (inactive) |

From PubChem BioAssay AID463206 (Broad Institute, 2010)
